Results published in patent US20220396569A1 (Carmot Therapeutics, Inc., priority 2021, published 2022).
pEC50: −log10 of the molar value.

What follows are compounds tested against T1, human GLP-1 receptor (Homo sapiens, UniProt P43220) (assay: GLP-1R cAMP Assay (HitHunter cAMP accumulation)). Conditions: cAMP accumulation, CHO cells stably overexpressing human GLP-1 receptor, 30 min treatment; read-out: EC50.
T1 construct: expressed in transfected cells
Format: cell-based
Procedure: cAMP accumulation was measured in Chinese hamster ovary (CHO) cells stably overexpressing the human GLP-1 receptor using the HitHunter cAMP Assay for Small Molecules Kit (Eurofins). Briefly, cells were grown in Ham's F12 Nutrient Mix with 10% FBS, and lifted with Cell Dissociation Buffer, Enzyme free, PBS based (ThermoFisher). Cells were pelleted, and resuspended in Hank's buffered saline solution with 10 mM HEPES, and 625 μM 3-isobutyl-1-methylxanthine. The anti-cAMP antibody reagent was then added to cells at a 1:2 ratio and 5 μL of mixture was seeded in 384-well small volume white assay plates, at 10,000 cells/well. Cells were then treated with 50 nL compound using an ECHO 550 acoustic dispenser (Labcyte) in a 20-point dose response format in triplicate for 30 min. Cells were then lysed, and detection reagents added according to the manufacturer's protocol. After overnight incubation, luminescence was measured using a Perkin Elmer Envision plate reader. Dose response curves were analyzed using GraphPad Prism 9.0. […]

T1 sequence (P43220 24-463): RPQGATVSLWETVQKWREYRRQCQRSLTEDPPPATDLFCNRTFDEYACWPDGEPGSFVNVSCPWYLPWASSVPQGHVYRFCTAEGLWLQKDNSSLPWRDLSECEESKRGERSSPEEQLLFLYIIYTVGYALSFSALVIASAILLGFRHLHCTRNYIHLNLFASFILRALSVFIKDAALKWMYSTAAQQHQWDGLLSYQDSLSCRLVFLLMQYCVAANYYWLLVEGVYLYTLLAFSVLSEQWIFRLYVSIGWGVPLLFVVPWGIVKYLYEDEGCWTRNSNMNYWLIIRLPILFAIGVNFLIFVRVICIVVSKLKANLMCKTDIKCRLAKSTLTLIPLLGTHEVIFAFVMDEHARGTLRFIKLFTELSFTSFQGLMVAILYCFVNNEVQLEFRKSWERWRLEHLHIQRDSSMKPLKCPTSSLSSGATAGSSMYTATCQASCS

Compound | pEC50
N#Cc1ccc(OCc2nc(C3=CCN(Cc4nc5c(F)cc(C(=O)O)cc5n4CC4(CF)CC4)C3)ccc2F)c(F)c1 [Compound 416, 2-[(3-{6-[(4-cyano-2-fluorophenoxy)methyl]-5-fluoropyridin-2-yl}-2,5-dihydro-1H-pyrrol-1-yl)methyl]-4-fluoro-1-{[1-(fluoromethyl)cyclopropyl]methyl)-1H-1,3-benzodiazole-6-carboxylic acid] | > 7.30
O=C(O)c1cc(F)c2nc(CN3CC[C@H](Oc4cccc(COc5ccc(Cl)cc5F)c4)C3)n(C[C@@H]3CCO3)c2c1 [Compound 351, 2-{[(3S)-3-{3-[(4-chloro-2-fluorophenoxy)methyl]phenoxy}pyrrolidin-1-yl]methyl}-4-fluoro-1-{[(2S)-oxetan-2-yl]methyl}-1H-1,3-benzodiazole-6-carboxylic acid] | > 7.30
CC1(c2ccc(Cl)cn2)Oc2cccc(CC3CN(Cc4nc5ccc(C(=O)O)cc5n4C[C@@H]4CCO4)C3)c2O1 (stereo partly drawn) [Compound 172, 2-[(3-{[2-(5-chloropyridin-2-yl)-2-methyl-2H-1,3-benzodioxol-4-yl]methyl}azetidin-1-yl)methyl]-1-{[(2S)-oxetan-2-yl]methyl}-1H-1,3-benzodiazole-6-carboxylic acid] | < 6.30
CCn1cncc1Cn1c(CN2CC(Oc3cccc(COc4ccc(Cl)cc4C#N)c3)C2)nc2ccc(C(=O)O)cc21 [Compound 212, 2-[(3-{3-[(4-chloro-2-cyanophenoxy)methyl]phenoxy}azetidin-1-yl)methyl]-1-[(1-ethyl-1H-imidazol-5-yl)methyl]-1H-1,3-benzodiazole-6-carboxylic acid] | > 7.30
N#CCC1(Cn2c(CN3CC[C@H](c4ccnc(COc5ccc(Cl)cc5F)c4)C3)nc3c(F)cc(C(=O)O)cc32)CC1 [Compound 434, 2-{[(3R)-3-{2-[(4-chloro-2-fluorophenoxy)methyl]pyridin-4-yl}pyrrolidin-1-yl]methyl}-1-{[1-(cyanomethyl)cyclopropyl]methyl}-4-fluoro-1H-1,3-benzodiazole-6-carboxylic acid] | 6.30 to 7.30
O=C(O)c1cc(F)c2nc(CN3CC[C@@H](c4cccc(COc5ccc(Cl)cc5F)n4)C3)n(C[C@@H]3CCO3)c2c1 [Compound 441, 2-{[(3R)-3-{6-[(4-chloro-2-fluorophenoxy)methyl]pyridin-2-yl}pyrrolidin-1-yl]methyl}-4-fluoro-1-{[(2S)-oxetan-2-yl]methyl}-1H-1,3-benzodiazole-6-carboxylic acid] | 6.30 to 7.30
CCn1cncc1Cn1c(CN2CCC(Cc3cccc4c3O[C@](C)(c3ccc(Cl)cc3F)O4)CC2)nc2ccc(C(=O)O)cc21 (single isomer, unassigned) [Compound 222] | > 7.30
N#Cc1ccc(OCc2nc(C3=CCN(Cc4nc5ccc(C(=O)O)cc5n4C[C@@H]4CCO4)C3)ccc2F)c(F)c1 [Compound 408, 2-[(3-{6-[(4-cyano-2-fluorophenoxy)methyl]-5-fluoropyridin-2-yl}-2,5-dihydro-1H-pyrrol-1-yl)methyl]-1-{[(2S)-oxetan-2-yl]methyl}-1H-1,3-benzodiazole-6-carboxylic acid] | > 7.30
O=C(O)c1ccc2nc(CN3CCC(c4cccc(COc5ccc(Cl)cc5Cl)c4)C3)n(C[C@@H]3CCO3)c2c1 (stereo partly drawn) [Example 383, 2-((3-(3-((2,4-Dichlorophenoxy)methyl)phenyl)pyrrolidin-1-yl)methyl)-1-(((S)-oxetan-2-yl)methyl)-1H-benzo[d]imidazole-6-carboxylic acid] | > 7.30
N#Cc1ccc(OCc2nc(N3CC[C@H](Cc4nc5c(F)cc(C(=O)O)cc5n4C[C@@H]4CCO4)C3)ccc2F)c(F)c1 [Compound 529] | > 7.30
CCn1cncc1Cn1c(CN2CC(Oc3ccnc(COc4ccc(Cl)cc4Cl)c3)C2)nc2ccc(C(=O)O)cc21 [Compound 218, 2-{[3-({2-[(2,4-dichlorophenoxy)methyl]pyridin-4-yl}oxy)azetidin-1-yl]methyl}-1-[(1-ethyl-1H-imidazol-5-yl)methyl]-1H-1,3-benzodiazole-6-carboxylic acid] | > 7.30
O=C(O)c1ccc2nc(CN3CCC(c4ccc(F)c(COc5ccc(Cl)cc5F)n4)C3)n(C[C@@H]3CCO3)c2c1 (stereo partly drawn) [Compound 409, 2-[(3-{6-[(4-chloro-2-fluorophenoxy)methyl]-5-fluoropyridin-2-yl}pyrrolidin-1-yl)methyl]-1-{[(2S)-oxetan-2-yl]methyl}-1H-1,3-benzodiazole-6-carboxylic acid] | > 7.30
O=C(O)c1ccc2nc(CN3CC(=Cc4ccnc(COc5ccc(Cl)cc5Cl)c4)C3)n(C[C@@H]3CCO3)c2c1 [Compound 190, 2-{[3-({2-[(2,4-dichlorophenoxy)methyl]pyridin-4-yl}methylidene)azetidin-1-yl]methyl}-1-{[(2S)-oxetan-2-yl]methyl}-1H-1,3-benzodiazole-6-carboxylic acid] | > 7.30

Second part, the compound after the results:

pEC50 | Compound
6.30 to 7.30 | N#Cc1ccc(OCc2cc([C@H]3CCN(Cc4nc5ccc(C(=O)O)cc5n4C[C@@H]4CCO4)C3)ccc2F)c(F)c1 [Compound 439, 2-{[(3R)-3-{3-[(4-cyano-2-fluorophenoxy)methyl]-4-fluorophenyl}pyrrolidin-1-yl]methyl}-1-{[(2S)-oxetan-2-yl]methyl}-1H-1,3-benzodiazole-6-carboxylic acid]
> 7.30 | N#Cc1ccc(OCc2nc(C34CC3CN(Cc3nc5c(F)cc(C(=O)O)cc5n3C[C@@H]3CCO3)C4)ccc2F)c(Cl)c1 (stereo partly drawn) [Compound 525, 2-[(1-{6-[(2-chloro-4-cyanophenoxy)methyl]-5-fluoropyridin-2-yl}-3-azabicyclo[3.1.0]hexan-3-yl)methyl]-4-fluoro-1-{[(2S)-oxetan-2-yl]methyl}-1H-1,3-benzodiazole-6-carboxylic acid]
> 7.30 | O=C(O)c1ccc2nc(CN3CC[C@@H](c4ccc(F)c(COc5ccc(Cl)cc5F)n4)C3)n(C[C@@H]3CCO3)c2c1 (single isomer, unassigned) [Compound 516]
> 7.30 | C[C@H]1[C@@H](Oc2ccnc(COc3ccc(C#N)cc3F)n2)CN1Cc1nc2ccc(C(=O)O)cc2n1C[C@@H]1CCO1 [Compound 545, 2-{[(2S,3S)-3-({2-[(4-cyano-2-fluorophenoxy)methyl]pyrimidin-4-yl}oxy)-2-methylazetidin-1-yl]methyl}-1-{[(2S)-oxetan-2-yl]methyl}-1H-1,3-benzodiazole-6-carboxylic acid]
> 7.30 | N#Cc1ccc(OCc2nc(C34CC3CN(Cc3nc5c(F)cc(C(=O)O)cc5n3C[C@@H]3CCO3)C4)ccc2F)c(F)c1 (stereo partly drawn) [Compound 523, 2-[(1-{6-[(4-cyano-2-fluorophenoxy)methyl]-5-fluoropyridin-2-yl}-3-azabicyclo[3.1.0]hexan-3-yl)methyl]-4-fluoro-1-{[(2S)-oxetan-2-yl]methyl}-1H-1,3-benzodiazole-6-carboxylic acid]
6.30 to 7.30 | N#Cc1ccc(OCc2nc(C3=CCN(Cc4nc5ccc(C(=O)O)cc5n4CC4(CC(N)=O)CC4)C3)ccc2F)c(F)c1 [Compound 423, 1-{[1-(carbamoylmethyl)cyclopropyl]methyl}-2-[(3-{6-[(4-cyano-2-fluorophenoxy)methyl]-5-fluoropyridin-2-yl}-2,5-dihydro-1H-pyrrol-1-yl)methyl]-1H-1,3-benzodiazole-6-carboxylic acid]
> 7.30 | N#Cc1ccc(OCc2nc(C3C[C@H](CF)N(Cc4nc5ccc(C(=O)O)cc5n4C[C@@H]4CCO4)C3)ccc2F)c(F)c1 (mixture of isomers) [Compound 528, 2-(((2R)-4-(6-((4-Cyano-2-fluorophenoxy)methyl)-5-fluoropyridin-2-yl)-2-(fluoromethyl)pyrrolidin-1-yl)methyl)-1-(((S)-oxetan-2-yl)methyl)-1H-benzo[d]imidazole-6-carboxylic acid]
> 7.30 | CCn1cncc1Cn1c(CN2CCC(Cc3cccc4c3O[C@@](C)(c3ccc(Cl)cc3F)O4)CC2)nc2ccc(C(=O)O)cc21 (single isomer, unassigned) [Compound 223]
> 7.30 | N#CCC1(Cn2c(CN3CC=C(c4ccc(F)c(COc5ccc(Cl)cc5F)n4)C3)nc3ccc(C(=O)O)cc32)CC1 [Compound 429, 2-[(3-{6-[(4-chloro-2-fluorophenoxy)methyl]-5-fluoropyridin-2-yl}-2,5-dihydro-1H-pyrrol-1-yl)methyl]-1-{[1-(cyanomethyl)cyclopropyl]methyl}-1H-1,3-benzodiazole-6-carboxylic acid]
> 7.30 | N#Cc1ccc(OCc2cc([C@@H]3CCN(Cc4nc5ccc(C(=O)O)cc5n4C[C@@H]4CCO4)C3)ccc2F)c(F)c1 [Compound 443, 2-{[(3S)-3-{3-[(4-cyano-2-fluorophenoxy)methyl]-4-fluorophenyl}pyrrolidin-1-yl]methyl}-1-{[(2S)-oxetan-2-yl]methyl}-1H-1,3-benzodiazole-6-carboxylic acid]
> 7.30 | O=C(O)c1ccc2nc(CN3CC=C(c4ccnc(COc5ccc(Cl)cc5Cl)c4)C3)n(Cc3ncco3)c2c1 [Compound 392]
> 7.30 | O=C(O)c1ccc2nc(CN3CC(Oc4cccc(COc5ccc(Cl)cc5Cl)c4)C3)n(Cc3cnco3)c2c1 [Compound 238, 2-[(3-{3-[(2,4-dichlorophenoxy)methyl]phenoxy}azetidin-1-yl)methyl]-1-[(1,3-oxazol-5-yl)methyl]-1H-1,3-benzodiazole-6-carboxylic acid]
> 7.30 | CCn1cncc1Cn1c(CN2CCC(Cn3ccc(COc4ccc(Cl)cc4Cl)n3)CC2)nc2ccc(C(=O)O)cc21 [Example 281, 2-((4-((3-((2,4-Dichlorophenoxy)methyl)-1H-pyrazol-1-yl)methyl)piperidin-1-yl)methyl)-1-((1-ethyl-1H-imidazol-5-yl)methyl)-1H-benzo[d]imidazole-6-carboxylic acid]
